These results are taken from the supplement of paper PMC10331698.

What all share (experiment): level (log10 ratio to DMSO vehicle control); higher = higher biomarker level / cell amount than vehicle control
Compound in assay [1]: CN(C(=O)C(F)(F)C(F)(F)C(F)(F)F)[Si](C)(C)C [N-Methyl-N-trimethylsilylheptafluorobutyramide] (in DMSO)
How it is done: (§1)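 BioMAP Diversity Plus panel of 12 human primary cell co-culture systems (3C, 4H, LPS, SAg, BT, BF4T, BE3C, CASM3C, HDF3CGF, KF3CT, MyoF, Mphg). Compounds were added 1 h before stimulation and left for 24 h (MyoF 48 h; BT 72 h for soluble read-outs or 6 d for IgG). Biomarkers were read by ELISA, cytotoxicity by SRB, PBMC viability and proliferation by Alamar Blue. Each well value was divided by the mean of 8 DMSO control wells on the same plate and log10 transformed; duplicate blinded samples were tested at 4 concentrations.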

Compound in assay [2]: C[C@@H]1C[C@H]2[C@@H]3CCC4=CC(=O)C=C[C@]4(C)[C@@]3(F)[C@@H](O)C[C@]2(C)[C@@]1(O)C(=O)COP(=O)(O)O [Dexamethasone sodium phosphate] (in DMSO)
How it is done: as §1

Compound in assay [3]: O=C(O)C(F)(F)C(F)(F)C(F)(F)OC(F)(F)F [Perfluoro(4-methoxybutanoic) acid] (in DMSO)
How it is done: as §1

Compound in assay [4]: O=C(O)C(F)(OC(F)(F)C(F)(OC(F)(F)C(F)(OC(F)(F)C(F)(F)C(F)(F)F)C(F)(F)F)C(F)(F)F)C(F)(F)F [Perfluoro-(2,5,8-trimethyl-3,6,9-trioxadodecanoic)acid] (in DMSO)
How it is done:
as §1

Compound in assay [5]: O=C(O)CCC(F)(C(F)(F)F)C(F)(F)F [4,4-bis(Trifluoromethyl)-4-fluoropropanoic acid] (in DMSO)
How it is done: as §1

Compound in assay [6]: OCC(F)(F)C(F)(F)C(F)(F)C(F)(F)C(F)(F)C(F)(F)CO [1H,1H,8H,8H-Perfluorooctane-1,8-diol] (in DMSO)
How it is done: as §1

± gives the standard deviation of the averaged measurements.

MyoF:Collagen IV: the “level (log10)” value was 0.0175 ± 0.0021 in assay [1] (6700 nM); 0.0075 ± 0.0078 in assay [1] (20000 nM); 0.0325 ± 0.04 in assay [1] (60000 nM); -0.007 ± 0.021 in assay [2] (1500 nM); 0.011 ± 0.041 in assay [2] (4400 nM); 0.0005 ± 0.037 in assay [2] (13000 nM). Also, the “level (log10)” value in assay [2] (40000 nM) is 0.0195 ± 0.011; in assay [3] (6700 nM) it was -0.0165 ± 0.0021; in assay [3] (20000 nM) it was -0.0125 ± 0.0035; in assay [3] (60000 nM), 0.016 ± 0.027; in assay [4] (1100 nM) it was 0.034 ± 0.054; in assay [4] (3300 nM), 0.0255 ± 0.037. Besides, the “level (log10)” value in assay [4] (10000 nM) is 0.0225 ± 0.025; in assay [5] (6700 nM) it was -0.0105 ± 0.025; in assay [5] (20000 nM) it was -0.0185 ± 0.023; in assay [5] (60000 nM), 0.0035 ± 0.00071; in assay [6] (6700 nM), -0.014 ± 0.0057; in assay [6] (20000 nM) it was -0.0115 ± 0.005. In addition, in assay [6] (60000 nM), the “level (log10)” value was -0.011 ± 0.042.

For the test system MyoF:Decorin, the “level (log10)” value in assay [1] (6700 nM) was 0.009 ± 0.011; in assay [1] (20000 nM), 0.0095 ± 0.018; in assay [1] (60000 nM), 0.03 ± 0.042; in assay [2] (1500 nM) it was 0.016 ± 0.011; in assay [2] (4400 nM) it was 0.0385 ± 0.012; in assay [2] (13000 nM), 0.034 ± 0.033. In addition, the “level (log10)” value in assay [2] (40000 nM) was 0.039 ± 0.042; in assay [3] (6700 nM) it was -0.024 ± 0.041; in assay [3] (20000 nM) it was 0.0175 ± 0.079; in assay [3] (60000 nM), -0.0075 ± 0.063; in assay [4] (1100 nM), 0 ± 0.013; in assay [4] (3300 nM), -0.0065 ± 0.013. For the same test system, the “level (log10)” value in assay [4] (10000 nM) is 0.012; in assay [5] (6700 nM), -0.0215 ± 0.025; in assay [5] (20000 nM), -0.015 ± 0.044; in assay [5] (60000 nM) it was -0.001 ± 0.04; in assay [6] (6700 nM), -0.006 ± 0.0085; in assay [6] (20000 nM), 0.0195 ± 0.013. For the same test system, in assay [6] (60000 nM), the “level (log10)” value was found to be 0.0325 ± 0.016.
